4 compounds from ChEMBL document CHEMBL1201862, “PubChem BioAssay data set” (2004) can be followed below.

The nature of assay [1]: NIH-3T3 fibroblast cytotoxicity, dose response, cytotoxicity control, cell-based, fluorescence, Alamar Blue, secondary assay (AID 2327).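 Further: NIH-3T3 mouse fibroblasts cultured with fluconazole at 8 µg/mL.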 The class given is functional. In general terms: Alamar Blue is a resazurin reagent that responds to reducing activity.
Assay [2] in a line: cells. The class given is functional, cell-based.
Assay [3] in a line: fluconazole-exposed Candida albicans growth modulators – fluorescence, retest, confirmation (AID 2467). The format is functional, cell-based.
Assay [4] in a line: cells. The format is functional, cell-based. The source holds these as a separate data set.
Assay [5] in a line: Luminescence Cell-Based Dose Retest to Confirm Inhibitors of Cancer Stem Cells. [Related pubchem assays (depositor defined):AID2717, AID2721]. The format is functional. As to conditions: Homo sapiens.
Assay [6] addresses E3 ubiquitin-protein ligase Mdm2/Protein Mdm4 (Homo sapiens, UniProt O15151+Q00987). The assay can be described thus: disruption of Mdm2/MdmX protein binding – luminescence detection, dose response (AID 504593). The class given is functional.
Assay [7] addresses T1, Coagulation factor XII (Homo sapiens, UniProt P00748).
T1 sequence (P00748 whole entry): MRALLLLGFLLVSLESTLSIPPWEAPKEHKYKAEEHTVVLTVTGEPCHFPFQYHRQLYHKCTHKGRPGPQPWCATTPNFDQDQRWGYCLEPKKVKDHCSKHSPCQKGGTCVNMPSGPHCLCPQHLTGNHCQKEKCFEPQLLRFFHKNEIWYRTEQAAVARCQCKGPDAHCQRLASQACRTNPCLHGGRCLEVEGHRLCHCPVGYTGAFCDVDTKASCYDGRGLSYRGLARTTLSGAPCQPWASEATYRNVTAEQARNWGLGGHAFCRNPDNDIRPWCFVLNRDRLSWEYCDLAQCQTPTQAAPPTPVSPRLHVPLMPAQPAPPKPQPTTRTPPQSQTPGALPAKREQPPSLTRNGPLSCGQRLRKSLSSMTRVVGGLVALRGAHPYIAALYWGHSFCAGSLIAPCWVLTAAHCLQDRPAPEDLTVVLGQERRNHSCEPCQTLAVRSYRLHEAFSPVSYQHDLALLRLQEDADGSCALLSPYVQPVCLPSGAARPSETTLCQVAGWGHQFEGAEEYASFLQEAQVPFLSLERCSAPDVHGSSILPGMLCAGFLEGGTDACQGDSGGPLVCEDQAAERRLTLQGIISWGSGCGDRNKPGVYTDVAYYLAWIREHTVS
The assay can be described thus: activated coagulation factor XII inhibitor potency, concentration-effect curve, cell-free (AID 716). The format is functional.

The target of assay [8] is T1, Coagulation factor XII. The assay can be described thus: Factor XIIa Dose Response Confirmation from Single Well HTS. [Related pubchem assays (depositor defined):AID701]. The class given is functional.
The nature of assay [9]: luciferase reporter signal suppression in cells – H4 neuroglioma cells, luminescence, dose response (AID 1990). The format is functional, cell-based. For orientation: In a reporter assay the amount or activity of a reporter protein is the signal.
The nature of assay [10]: decrease of insulin promoter-GFP reporter – imaging, high-content screening, mouse beta cells (AID 1628). The format is functional. As to conditions: MIN6.
Assay [11] relates to BJ. The assay can be described thus: BJ-TERT fibroblast viability loss – cell-based, RAS-independent, luminescence, dose response (AID 1933). The format is functional. As to conditions: Homo sapiens.
Assay [12] is described as follows: Luminescence Cell-Based Dose Response HTS to Identify Inhibitors of 5'UTR Stem-Loop Driven Prion Protein mRNA Translation in H4 Neuroglioblastoma Cells. [Related pubchem assays: 1827 (Project Summary), 1813 (Primary HTS)]. The format is functional.
Assay [13] in a line: MIN6 cell viability loss – mouse insulinoma, cytotoxicity control, dose response (AID 2122).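 Further: confirmatory high-throughput counterscreen run to flag cytotoxic compounds.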 The class given is functional.
Assay [14] addresses T2, Heat shock factor protein 1 (Mus musculus, UniProt P38532).
T2 sequence (P38532 whole entry): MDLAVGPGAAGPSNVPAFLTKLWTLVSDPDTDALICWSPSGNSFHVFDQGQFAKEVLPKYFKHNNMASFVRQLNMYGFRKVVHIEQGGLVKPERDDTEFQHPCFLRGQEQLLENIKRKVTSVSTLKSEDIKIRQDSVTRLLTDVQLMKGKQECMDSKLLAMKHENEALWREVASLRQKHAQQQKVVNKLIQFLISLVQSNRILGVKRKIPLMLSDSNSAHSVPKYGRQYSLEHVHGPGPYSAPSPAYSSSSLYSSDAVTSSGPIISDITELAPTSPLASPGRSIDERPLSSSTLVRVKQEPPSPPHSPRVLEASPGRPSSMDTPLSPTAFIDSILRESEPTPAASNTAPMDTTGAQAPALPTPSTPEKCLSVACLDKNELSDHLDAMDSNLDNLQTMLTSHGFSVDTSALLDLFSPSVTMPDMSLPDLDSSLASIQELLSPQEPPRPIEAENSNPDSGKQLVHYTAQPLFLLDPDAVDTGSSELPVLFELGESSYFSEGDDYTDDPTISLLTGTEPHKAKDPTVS
The assay can be described thus: decrease of HSF1-responsive luciferase luminescence – cell-based, NIH3T3, dose retest, confirmation (AID 2382).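 Further: NIH3T3 fibroblasts with HSF1-driven luciferase reporter stressed by proteasome inhibitor MG132; luminescence from HSF1-driven luciferase expression after 8 hours of MG132 stress.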 The class given is functional.

Assay [15] in a line: alpha-synuclein stem-loop luciferase translation blockers – H4 neuroglioma cells, luminescence, confirmation (AID 1988). The format is functional, cell-based.
Assay [16] deals with BJ. The assay can be described thus: cells. Particulars: Homo sapiens. The format is functional, cell-based.
Assay [17] relates to BJ. The assay can be described thus: BJ-TERT-LT-ST fibroblast viability loss – cell-based, RAS-independent, luminescence, dose response (AID 1935).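 Further: BJ fibroblasts immortalized with TERT plus LT and ST oncogenes.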 As to conditions: Homo sapiens. The class given is functional.
Assay [18] in a line: DRD fibroblast viability loss – cell-based, non-viral oncogenic, luminescence, dose response (AID 1934). The format is functional. Particulars: Homo sapiens.
The target in assay [19] is T3, Type-1 angiotensin II receptor (Homo sapiens, UniProt P30556).
T3 sequence (P30556 whole entry): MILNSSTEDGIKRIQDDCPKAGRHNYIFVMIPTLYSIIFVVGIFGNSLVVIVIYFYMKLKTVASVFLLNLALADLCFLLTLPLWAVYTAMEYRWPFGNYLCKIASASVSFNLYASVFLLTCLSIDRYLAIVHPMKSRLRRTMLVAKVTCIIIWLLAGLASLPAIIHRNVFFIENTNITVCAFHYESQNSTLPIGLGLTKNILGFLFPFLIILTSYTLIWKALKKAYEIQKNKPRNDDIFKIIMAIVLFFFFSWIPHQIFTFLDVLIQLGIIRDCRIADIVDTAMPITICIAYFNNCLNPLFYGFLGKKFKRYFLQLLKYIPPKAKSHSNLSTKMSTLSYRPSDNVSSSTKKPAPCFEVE
Nature of the assay: agonist activity at AGTR1 – cell-based, uHTS hits, selectivity assay for APJ receptor agonist project, dose response (AID 488865).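 Further: beta-arrestin recruitment to AT1 measured by enzyme fragment complementation luminescence.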 The format is functional.

A further assay addresses X-box-binding protein 1 (Homo sapiens, UniProt P17861). The format is functional, Cricetulus griseus.
In assay [20] the test system is BJ. Nature of the assay: growth inhibition of engineered Ras-driven BJ cells – cell-based, alamar blue fluorescence, cherrypicked samples, dose response (AID 2631).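 Further: confirmatory dose-response assay in RAS-dependent BJ fibroblasts engineered with TERT, LT and ST, with cytotoxicity read by fluorescence.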 As to conditions: Homo sapiens. The class given is functional.
A further assay relates to INS1. The assay can be described thus: INS-1E survival protection against cytokine death – cell-based, luminescence, retest, dose response (AID 449756).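 Further: cell death triggered by IL-1 beta plus TNF-alpha plus IFN-gamma mixture; protective hits raise ATP signal compared with cytokine alone wells.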 The class given is functional. Particulars: Rattus norvegicus.

Activity calls are given as the source filed them. For most assays here, no stated cut-off is given here; in the data, actives have a measured EC50 and inactives only a lower limit.
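Wherever Absolute IC50 (XBP1) is given: confirmatory dose-response counter-screen serving a CHOP assay.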

Chain of X-box-binding protein 1 (P17861 whole entry): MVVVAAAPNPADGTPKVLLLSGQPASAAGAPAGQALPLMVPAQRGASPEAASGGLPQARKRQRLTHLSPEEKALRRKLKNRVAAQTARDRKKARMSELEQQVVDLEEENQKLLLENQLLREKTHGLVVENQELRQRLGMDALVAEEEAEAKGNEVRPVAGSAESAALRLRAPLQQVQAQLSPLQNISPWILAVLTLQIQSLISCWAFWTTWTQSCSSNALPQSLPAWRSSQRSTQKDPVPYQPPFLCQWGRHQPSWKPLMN
Chain of E3 ubiquitin-protein ligase Mdm2/Protein Mdm4 (Q00987 whole entry): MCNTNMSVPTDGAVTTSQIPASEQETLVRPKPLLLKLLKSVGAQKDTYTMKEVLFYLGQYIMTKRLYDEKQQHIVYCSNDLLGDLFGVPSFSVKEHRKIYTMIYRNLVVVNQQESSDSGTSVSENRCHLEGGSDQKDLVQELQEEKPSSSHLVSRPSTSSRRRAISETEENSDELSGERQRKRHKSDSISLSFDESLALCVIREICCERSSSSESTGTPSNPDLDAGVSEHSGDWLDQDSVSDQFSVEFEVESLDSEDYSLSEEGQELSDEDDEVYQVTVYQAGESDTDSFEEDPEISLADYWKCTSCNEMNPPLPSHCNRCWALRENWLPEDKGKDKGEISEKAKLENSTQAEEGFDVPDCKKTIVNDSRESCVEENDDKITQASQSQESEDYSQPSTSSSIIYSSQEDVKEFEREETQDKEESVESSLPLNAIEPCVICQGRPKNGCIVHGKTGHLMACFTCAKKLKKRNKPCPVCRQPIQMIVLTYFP
Chain of E3 ubiquitin-protein ligase Mdm2/Protein Mdm4 (O15151 whole entry): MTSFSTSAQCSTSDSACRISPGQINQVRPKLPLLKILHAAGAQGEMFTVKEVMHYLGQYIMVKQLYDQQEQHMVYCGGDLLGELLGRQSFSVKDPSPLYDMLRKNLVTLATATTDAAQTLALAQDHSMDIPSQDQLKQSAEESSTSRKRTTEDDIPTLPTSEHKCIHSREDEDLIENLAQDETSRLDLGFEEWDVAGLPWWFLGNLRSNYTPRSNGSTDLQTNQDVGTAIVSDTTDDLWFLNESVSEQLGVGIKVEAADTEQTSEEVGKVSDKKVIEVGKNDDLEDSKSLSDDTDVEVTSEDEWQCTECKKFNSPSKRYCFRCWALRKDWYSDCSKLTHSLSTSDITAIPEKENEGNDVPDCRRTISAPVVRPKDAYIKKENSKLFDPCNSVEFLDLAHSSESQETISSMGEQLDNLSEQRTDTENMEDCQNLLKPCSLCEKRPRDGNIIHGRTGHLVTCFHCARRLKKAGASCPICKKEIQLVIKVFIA

By EC50 is commonly meant the concentration at which the effect is half-maximal. The term AC50 denotes the concentration giving half of the maximal activity seen. By IC50 is commonly meant the midpoint of a concentration-inhibition curve. As to `O=C(CN1CCCc2ccccc21)N/N=C/c1c(O)ccc2ccccc12`, the 50% effective concentration (EC50) is > 160 µM (inconclusive) in assay [1], 60.1 µM (active) in “cells [2]”, 1.91 µM (active) in assay [3] and > 350 µM (not active) in “cells [4]”. The AC50 in assay [5] was 1.83 µM (active). For the same compound, the IC50 in assay [6] is 2.68 µM (active).

As for `O=C(Cc1ccc(-n2cccc2)cc1)N1CCc2ccccc21`, on Coagulation factor XII [7], the IC50 was > 50 µM (inactive).

Regarding `CC(C)NC(=O)c1ccccc1-c1ccccc1`, the IC50 at Coagulation factor XII [8] was > 50 µM (inactive).

Take `Cn1ncc2c(ON=C(N)c3ccc(C(C)(C)C)cc3)ncnc21`: the EC50 is > 120 µM (not active) in assay [9]; 1.32 µM (active) in the assay on BJ [11]; 10.1 µM (active) in [12]; 7.4 µM (active) in assay [14]; 7.91 µM (active) in assay [15]; 5.24 µM (inconclusive) in the assay on BJ [16]. For the same compound, the half-maximal effective concentration (EC50) with BJ [17] is 4.91 µM (inconclusive); in assay [18], 2.83 µM (active); in assay [19], > 100 µM (inactive); in the assay on BJ [20], 2.92 µM (active). Moreover, the IC50 in assay [10] is 2.12 µM (active); in assay [13], 1.22 µM (active). In addition, the “Absolute IC50 (XBP1)” value on X-box-binding protein 1 is under 10 µM. Further, in the assay on INS1, the AC50 was 5.03 µM (active).
